Test results from patent publication US20100292231A1, “Indazole Compounds for Treating Inflammatory Disorders, Demyelinating Disorders and Cancers” (priority 2007, published 2010).
Like-named read-outs stand apart in the source and are kept apart here.

Tests used:
Assay in all cases: SelectScreen kinase specificity survey
Type in all cases: biochemical
CDC42 BPB (MRCKB) = target: T1, CDC42 BPB (MRCKB) (Homo sapiens, UniProt Q9Y5S2); details: estimated, abridged dose response curve, read-out: Kinase inhibitory activity EC50
T1 construct: purchased Invitrogen (SelectScreen platform)
In short: (§1)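 230-kinase panel; kinase-specific substrate plus optical reporter; ATP 100 micromolar; 5-point inhibitor titration; 4-parameter Hill fit gives estimated EC50.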

PRKG2 (PKG2) = target: T2, PRKG2 (PKG2) (Homo sapiens, UniProt Q13237); details: estimated, abridged dose response curve, read-out: Kinase inhibitory activity EC50
T2 construct: purchased Invitrogen, Inc. (SelectScreen platform)
In short: as §1

CLK3 = target: T3, CLK3 (Homo sapiens, UniProt P49761); details: estimated, abridged dose response curve, read-out: Kinase inhibitory activity EC50
T3 construct: purchased Invitrogen (SelectScreen platform)
In short: as §1

STK23 (MSSK1) = target: T4, STK23 (MSSK1) (Homo sapiens, UniProt Q9UPE1); details: estimated, abridged dose response curve, read-out: Kinase inhibitory activity EC50
T4 construct: purchased Invitrogen, Inc. (SelectScreen service)
In short: as §1

FRK (PTK5) = target: T5, FRK (PTK5) (Homo sapiens, UniProt P42685); details: estimated, abridged dose response curve, read-out: Kinase inhibitory activity EC50
T5 construct: purchased Invitrogen (SelectScreen)
In short: as §1

GRK7 = target: T6, GRK7 (Homo sapiens, UniProt Q8WTQ7)
T6 construct: purchased Invitrogen (SelectScreen platform)
In short: as §1

CSNK1D (CK1 delta) = target: T7, CSNK1D (CK1 delta) (Homo sapiens, UniProt P48730); details: estimated, abridged dose response curve, read-out: Kinase inhibitory activity EC50
T7 construct: purchased Invitrogen (SelectScreen platform)
In short: as §1

SRMS (Srm) = target: T8, SRMS (Srm) (Homo sapiens, UniProt Q9H3Y6); details: estimated, abridged dose response curve, read-out: Kinase inhibitory activity EC50
T8 construct: purchased Invitrogen (SelectScreen)
In short: as §1

PRKCG (PKC gamma) = target: T9, PRKCG (PKC gamma) (Homo sapiens, UniProt P05129); details: estimated, abridged dose response curve, read-out: Kinase inhibitory activity EC50
T9 construct: purchased Invitrogen, Inc. (SelectScreen platform)
In short: as §1

PLK1 = target: T10, PLK1 (Homo sapiens, UniProt P53350); details: estimated, abridged dose response curve, read-out: Kinase inhibitory activity EC50
T10 construct: purchased Invitrogen, Inc. (SelectScreen service)
In short: as §1

FRAP1 (mTOR) = target: T11, FRAP1 (mTOR) (Homo sapiens, UniProt P42345); details: estimated, abridged dose response curve, read-out: Kinase inhibitory activity EC50
T11 construct: purchased Invitrogen, Inc. (SelectScreen platform)
In short: as §1

BRAF V599E = target: T12, BRAF V599E (Homo sapiens, UniProt P15056, V600E); details: estimated, abridged dose response curve, read-out: Kinase inhibitory activity EC50
T12 construct: purchased Invitrogen, Inc. (SelectScreen platform)
In short: as §1

PRKCA (PKC alpha) = target: T13, PRKCA (PKC alpha) (Homo sapiens, UniProt P17252); details: estimated, abridged dose response curve, read-out: Kinase inhibitory activity EC50
T13 construct: purchased Invitrogen (SelectScreen platform)
In short: as §1

JAK1 = target: T14, JAK1 (Homo sapiens, UniProt P23458); details: estimated, abridged dose response curve, read-out: Kinase inhibitory activity EC50
T14 construct: purchased Invitrogen (SelectScreen platform)
In short: as §1

FES (FPS) = target: T15, FES (FPS) (Homo sapiens, UniProt P07332); details: estimated, abridged dose response curve, read-out: Kinase inhibitory activity EC50
T15 construct: purchased Invitrogen (SelectScreen service)
In short: as §1

FLT3 D835Y = target: T16, FLT3 D835Y (Homo sapiens, UniProt P36888, D835Y); details: estimated, abridged dose response curve, read-out: Kinase inhibitory activity EC50
T16 construct: purchased Invitrogen (SelectScreen platform)
T16 sequence (P36888 27-993 D835Y): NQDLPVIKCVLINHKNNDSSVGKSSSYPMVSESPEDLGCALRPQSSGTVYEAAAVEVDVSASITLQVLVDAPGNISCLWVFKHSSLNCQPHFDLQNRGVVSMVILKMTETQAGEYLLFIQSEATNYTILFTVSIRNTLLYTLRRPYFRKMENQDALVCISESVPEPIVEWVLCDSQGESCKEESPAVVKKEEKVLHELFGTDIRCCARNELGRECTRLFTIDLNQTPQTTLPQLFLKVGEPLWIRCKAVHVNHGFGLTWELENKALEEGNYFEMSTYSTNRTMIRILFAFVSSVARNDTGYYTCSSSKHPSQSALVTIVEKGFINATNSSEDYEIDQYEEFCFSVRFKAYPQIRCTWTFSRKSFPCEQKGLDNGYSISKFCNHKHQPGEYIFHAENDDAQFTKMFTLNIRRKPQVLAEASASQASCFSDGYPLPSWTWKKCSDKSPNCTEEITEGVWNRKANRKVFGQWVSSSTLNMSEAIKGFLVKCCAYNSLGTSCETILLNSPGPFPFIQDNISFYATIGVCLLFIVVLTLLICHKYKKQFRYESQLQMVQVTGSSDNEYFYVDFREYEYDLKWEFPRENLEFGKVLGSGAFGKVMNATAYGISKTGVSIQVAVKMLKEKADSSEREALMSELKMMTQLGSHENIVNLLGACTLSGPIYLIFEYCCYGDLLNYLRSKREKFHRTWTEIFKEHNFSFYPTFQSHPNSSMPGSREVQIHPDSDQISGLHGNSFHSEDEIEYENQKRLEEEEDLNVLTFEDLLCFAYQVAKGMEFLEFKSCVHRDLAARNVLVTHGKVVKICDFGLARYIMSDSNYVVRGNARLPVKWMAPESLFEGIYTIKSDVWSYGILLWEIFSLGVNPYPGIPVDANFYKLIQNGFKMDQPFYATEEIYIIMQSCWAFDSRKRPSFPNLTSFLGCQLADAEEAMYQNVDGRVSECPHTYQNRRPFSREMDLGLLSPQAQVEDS
In short: as §1

T3 sequence (P49761 whole entry): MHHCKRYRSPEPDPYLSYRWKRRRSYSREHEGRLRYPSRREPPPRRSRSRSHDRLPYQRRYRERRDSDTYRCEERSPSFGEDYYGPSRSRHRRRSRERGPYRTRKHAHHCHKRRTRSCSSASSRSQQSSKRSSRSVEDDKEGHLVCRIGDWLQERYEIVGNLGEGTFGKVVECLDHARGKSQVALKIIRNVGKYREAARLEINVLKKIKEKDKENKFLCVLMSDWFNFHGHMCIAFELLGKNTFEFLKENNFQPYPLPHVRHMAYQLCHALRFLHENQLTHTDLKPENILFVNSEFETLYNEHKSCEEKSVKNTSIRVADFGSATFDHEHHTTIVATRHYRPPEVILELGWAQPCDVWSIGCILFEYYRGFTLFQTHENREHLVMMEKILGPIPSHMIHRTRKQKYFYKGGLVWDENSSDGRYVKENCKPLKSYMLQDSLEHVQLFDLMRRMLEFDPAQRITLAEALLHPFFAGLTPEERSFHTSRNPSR
T5 sequence (P42685 whole entry): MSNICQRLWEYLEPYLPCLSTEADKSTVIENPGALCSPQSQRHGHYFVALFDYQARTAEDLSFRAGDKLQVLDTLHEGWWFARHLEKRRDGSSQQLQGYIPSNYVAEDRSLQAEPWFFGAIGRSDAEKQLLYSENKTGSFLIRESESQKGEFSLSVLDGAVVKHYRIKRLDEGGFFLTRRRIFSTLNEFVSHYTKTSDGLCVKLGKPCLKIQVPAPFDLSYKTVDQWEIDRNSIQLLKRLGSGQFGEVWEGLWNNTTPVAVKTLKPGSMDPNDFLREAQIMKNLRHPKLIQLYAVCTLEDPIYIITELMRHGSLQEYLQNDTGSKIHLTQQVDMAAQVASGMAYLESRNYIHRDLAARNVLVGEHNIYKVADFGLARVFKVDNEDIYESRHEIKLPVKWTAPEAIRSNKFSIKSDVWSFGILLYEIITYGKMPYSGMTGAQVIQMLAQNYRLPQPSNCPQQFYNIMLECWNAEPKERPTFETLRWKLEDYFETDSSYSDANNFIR
T14 sequence (P23458 whole entry): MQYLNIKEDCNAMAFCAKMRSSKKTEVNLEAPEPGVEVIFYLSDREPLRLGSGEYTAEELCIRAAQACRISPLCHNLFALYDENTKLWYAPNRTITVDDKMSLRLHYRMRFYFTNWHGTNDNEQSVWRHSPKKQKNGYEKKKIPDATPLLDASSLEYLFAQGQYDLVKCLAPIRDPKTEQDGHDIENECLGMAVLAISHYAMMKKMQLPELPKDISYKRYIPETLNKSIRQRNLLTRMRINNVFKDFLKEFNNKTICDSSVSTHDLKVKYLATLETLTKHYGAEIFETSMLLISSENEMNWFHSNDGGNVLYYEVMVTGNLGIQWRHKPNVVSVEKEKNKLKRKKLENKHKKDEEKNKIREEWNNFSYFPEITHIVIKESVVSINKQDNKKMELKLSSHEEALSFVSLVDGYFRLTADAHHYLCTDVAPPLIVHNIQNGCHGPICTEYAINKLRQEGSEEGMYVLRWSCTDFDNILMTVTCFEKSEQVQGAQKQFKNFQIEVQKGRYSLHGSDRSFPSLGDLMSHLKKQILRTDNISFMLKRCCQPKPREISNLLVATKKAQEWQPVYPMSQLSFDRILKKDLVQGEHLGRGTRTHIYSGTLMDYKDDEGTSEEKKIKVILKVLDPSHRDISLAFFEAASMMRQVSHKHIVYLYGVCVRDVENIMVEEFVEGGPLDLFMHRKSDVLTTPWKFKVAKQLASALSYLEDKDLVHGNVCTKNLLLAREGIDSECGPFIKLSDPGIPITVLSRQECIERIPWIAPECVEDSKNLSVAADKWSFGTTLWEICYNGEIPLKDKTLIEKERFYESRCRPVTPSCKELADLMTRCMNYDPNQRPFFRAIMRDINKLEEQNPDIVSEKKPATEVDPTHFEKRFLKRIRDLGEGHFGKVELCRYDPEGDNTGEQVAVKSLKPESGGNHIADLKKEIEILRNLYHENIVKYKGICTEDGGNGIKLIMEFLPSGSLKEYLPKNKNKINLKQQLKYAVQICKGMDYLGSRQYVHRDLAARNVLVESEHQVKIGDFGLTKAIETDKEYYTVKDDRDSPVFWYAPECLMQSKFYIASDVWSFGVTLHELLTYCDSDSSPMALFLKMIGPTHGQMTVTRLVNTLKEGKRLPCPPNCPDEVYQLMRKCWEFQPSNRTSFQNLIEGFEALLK
T8 sequence (Q9H3Y6 whole entry): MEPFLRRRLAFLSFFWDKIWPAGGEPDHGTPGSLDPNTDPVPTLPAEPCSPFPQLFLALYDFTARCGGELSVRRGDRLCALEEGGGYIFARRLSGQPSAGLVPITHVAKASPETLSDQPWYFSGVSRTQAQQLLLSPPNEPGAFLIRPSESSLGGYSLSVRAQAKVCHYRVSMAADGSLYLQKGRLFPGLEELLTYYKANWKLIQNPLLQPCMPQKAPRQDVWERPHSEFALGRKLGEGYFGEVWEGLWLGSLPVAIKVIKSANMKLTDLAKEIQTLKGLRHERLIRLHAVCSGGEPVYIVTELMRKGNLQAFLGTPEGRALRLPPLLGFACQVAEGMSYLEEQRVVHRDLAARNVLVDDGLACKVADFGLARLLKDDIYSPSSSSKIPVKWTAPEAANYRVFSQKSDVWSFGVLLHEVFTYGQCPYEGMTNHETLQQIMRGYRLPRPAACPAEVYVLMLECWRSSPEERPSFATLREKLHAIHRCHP
T7 sequence (P48730 whole entry): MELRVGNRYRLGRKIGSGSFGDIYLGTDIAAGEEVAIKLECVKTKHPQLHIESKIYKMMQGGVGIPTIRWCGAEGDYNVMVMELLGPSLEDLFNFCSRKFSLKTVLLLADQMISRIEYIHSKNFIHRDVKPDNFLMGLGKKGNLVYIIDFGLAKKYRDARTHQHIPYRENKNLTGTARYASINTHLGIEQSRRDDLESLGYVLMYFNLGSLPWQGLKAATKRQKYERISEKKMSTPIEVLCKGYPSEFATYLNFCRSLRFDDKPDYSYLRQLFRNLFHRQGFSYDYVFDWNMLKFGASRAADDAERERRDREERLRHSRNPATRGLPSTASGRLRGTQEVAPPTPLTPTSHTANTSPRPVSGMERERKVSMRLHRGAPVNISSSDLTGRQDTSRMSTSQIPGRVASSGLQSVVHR
T6 sequence (Q8WTQ7 whole entry): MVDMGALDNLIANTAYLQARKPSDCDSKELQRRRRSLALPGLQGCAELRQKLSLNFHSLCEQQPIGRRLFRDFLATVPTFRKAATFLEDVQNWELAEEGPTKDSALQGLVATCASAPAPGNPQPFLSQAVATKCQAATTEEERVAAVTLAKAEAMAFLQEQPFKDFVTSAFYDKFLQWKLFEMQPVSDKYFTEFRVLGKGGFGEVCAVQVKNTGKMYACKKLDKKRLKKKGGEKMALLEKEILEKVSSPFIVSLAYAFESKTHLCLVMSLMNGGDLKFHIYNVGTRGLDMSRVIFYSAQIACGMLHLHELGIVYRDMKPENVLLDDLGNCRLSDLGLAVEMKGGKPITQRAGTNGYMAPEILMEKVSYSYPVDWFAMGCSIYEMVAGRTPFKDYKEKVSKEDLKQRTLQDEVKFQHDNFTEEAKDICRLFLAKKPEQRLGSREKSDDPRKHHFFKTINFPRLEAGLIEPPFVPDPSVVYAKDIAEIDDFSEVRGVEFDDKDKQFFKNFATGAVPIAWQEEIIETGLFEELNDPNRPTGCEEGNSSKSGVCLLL
T15 sequence (P07332 whole entry): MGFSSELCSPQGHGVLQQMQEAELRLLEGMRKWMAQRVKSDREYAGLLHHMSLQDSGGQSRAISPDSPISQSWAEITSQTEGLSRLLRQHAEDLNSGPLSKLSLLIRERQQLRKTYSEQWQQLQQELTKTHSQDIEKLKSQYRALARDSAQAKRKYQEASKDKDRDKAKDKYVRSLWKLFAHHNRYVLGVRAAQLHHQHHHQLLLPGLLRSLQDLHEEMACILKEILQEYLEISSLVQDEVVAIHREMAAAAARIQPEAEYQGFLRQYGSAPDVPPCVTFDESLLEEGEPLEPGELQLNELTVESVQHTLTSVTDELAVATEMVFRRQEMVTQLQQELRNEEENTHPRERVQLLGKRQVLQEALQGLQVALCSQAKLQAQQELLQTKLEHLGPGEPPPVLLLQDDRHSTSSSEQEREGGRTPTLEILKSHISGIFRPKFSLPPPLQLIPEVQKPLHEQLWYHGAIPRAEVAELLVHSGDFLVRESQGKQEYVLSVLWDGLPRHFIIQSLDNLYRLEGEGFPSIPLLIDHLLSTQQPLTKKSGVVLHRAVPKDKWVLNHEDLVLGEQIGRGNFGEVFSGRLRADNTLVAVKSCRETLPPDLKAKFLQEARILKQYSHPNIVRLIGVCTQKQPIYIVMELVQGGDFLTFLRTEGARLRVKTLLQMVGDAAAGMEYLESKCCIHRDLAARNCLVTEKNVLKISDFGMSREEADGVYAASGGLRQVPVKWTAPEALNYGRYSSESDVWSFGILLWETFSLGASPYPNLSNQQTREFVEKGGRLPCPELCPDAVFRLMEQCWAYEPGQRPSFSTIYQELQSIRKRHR
T12 sequence (P15056 416-766 V600E limits assumed): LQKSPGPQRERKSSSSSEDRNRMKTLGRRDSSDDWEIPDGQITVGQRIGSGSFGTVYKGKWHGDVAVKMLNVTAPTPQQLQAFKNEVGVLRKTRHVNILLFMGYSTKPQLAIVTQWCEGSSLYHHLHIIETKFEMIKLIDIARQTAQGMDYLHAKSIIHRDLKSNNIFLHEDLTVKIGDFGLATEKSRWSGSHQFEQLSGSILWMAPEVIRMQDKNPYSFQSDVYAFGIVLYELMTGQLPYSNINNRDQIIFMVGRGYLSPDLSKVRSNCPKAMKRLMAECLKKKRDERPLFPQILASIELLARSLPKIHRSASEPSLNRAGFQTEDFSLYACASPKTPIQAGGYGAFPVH

Question: Which results are given for `CN(C)CCCNc1ccc2ncn3c4ccc5[nH]ncc5c4c(=O)c1c23` [Compound (IV)]?
Answer: EC50 (CDC42 BPB (MRCKB)): 3.63 µM; EC50 (PRKG2 (PKG2)): 1.91 µM; EC50 (CLK3): > 5 µM; EC50 (STK23 (MSSK1)): > 5 µM; EC50 (FRK (PTK5)): 0.389 µM; EC50 (GRK7; GRK7, estimated, abridged dose response curve, read-out: Kinase inhibitory activity EC50): > 5 µM; EC50 (CSNK1D (CK1 delta)): 4.8 µM; EC50 (SRMS (Srm)): > 5 µM; EC50 (PRKCG (PKC gamma)): > 5 µM; EC50 (PLK1): > 5 µM; EC50 (FRAP1 (mTOR)): > 5 µM; EC50 (BRAF V599E): 1.17 µM; EC50 (PRKCA (PKC alpha)): > 5 µM; EC50 (JAK1): > 5 µM; EC50 (FES (FPS)): 2.25 µM; EC50 (FLT3 D835Y): 0.001 µM

Question: Which results are given for `CCN(CC)CCNc1ccc2ncn3c4ccc(O)cc4c(=O)c1c23` [Symadex, 5-(2-(diethylamino)ethylamino)-8-hydroxy-6H-imidazo[4,5,1-de]acridin-6-one, reference compound]?
Answer: EC50 (CDC42 BPB (MRCKB)): > 5 µM; EC50 (PRKG2 (PKG2)): 2.85 µM; EC50 (CLK3): > 5 µM; EC50 (STK23 (MSSK1)): > 5 µM; EC50 (FRK (PTK5)): 2.11 µM; EC50 (GRK7): > 5 µM; EC50 (CSNK1D (CK1 delta)): 0.673 µM; EC50 (SRMS (Srm)): > 5 µM; EC50 (PRKCG (PKC gamma)): 1.89 µM; EC50 (PLK1): > 5 µM; EC50 (FRAP1 (mTOR)): > 5 µM; EC50 (BRAF V599E): 3.4 µM; EC50 (PRKCA (PKC alpha)): > 5 µM; EC50 (JAK1): > 5 µM; EC50 (FES (FPS)): 1.05 µM; EC50 (FLT3 D835Y): 0.003 µM
